# Values quoted from earlier work as cited in patent US4707498A, “Fluorinated diaminoalkyne derivatives” (Merrell Dow Pharmaceuticals Inc., priority 1986, dated 1987).
# Test system: tumor
# Settings: MGBG intravenously once or twice week
smiles,measurement,setting,value
"CC(C=NNC(=N)N)=NNC(=N)N [MGBG, methylglyoxal bis(guanylhydrazone)]",complete disappearance of the disease (number of treated patients),65 treated patients,two of the 65
same,regression of the tumor,"patients in advanced stages of carcinoma, lymphoma, hepatoma, melanoma, leukemia or sarcoma",measurable regression of the tumor in many of the patients treated
